# Reference: publication PMC8069501, “Identification of Vinyl Sulfone Derivatives as EGFR Tyrosine Kinase Inhibitor: In Vitro and In Silico Studies” (Molecules, 2021)
# Columns and labels:
# Assay type in all cases: biochemical
# [1] = target: T1, JAK3 (Homo sapiens, UniProt P52333); assay: kinase inhibition assay (ADP-Glo)
# T1 sequence (P52333 1-1124): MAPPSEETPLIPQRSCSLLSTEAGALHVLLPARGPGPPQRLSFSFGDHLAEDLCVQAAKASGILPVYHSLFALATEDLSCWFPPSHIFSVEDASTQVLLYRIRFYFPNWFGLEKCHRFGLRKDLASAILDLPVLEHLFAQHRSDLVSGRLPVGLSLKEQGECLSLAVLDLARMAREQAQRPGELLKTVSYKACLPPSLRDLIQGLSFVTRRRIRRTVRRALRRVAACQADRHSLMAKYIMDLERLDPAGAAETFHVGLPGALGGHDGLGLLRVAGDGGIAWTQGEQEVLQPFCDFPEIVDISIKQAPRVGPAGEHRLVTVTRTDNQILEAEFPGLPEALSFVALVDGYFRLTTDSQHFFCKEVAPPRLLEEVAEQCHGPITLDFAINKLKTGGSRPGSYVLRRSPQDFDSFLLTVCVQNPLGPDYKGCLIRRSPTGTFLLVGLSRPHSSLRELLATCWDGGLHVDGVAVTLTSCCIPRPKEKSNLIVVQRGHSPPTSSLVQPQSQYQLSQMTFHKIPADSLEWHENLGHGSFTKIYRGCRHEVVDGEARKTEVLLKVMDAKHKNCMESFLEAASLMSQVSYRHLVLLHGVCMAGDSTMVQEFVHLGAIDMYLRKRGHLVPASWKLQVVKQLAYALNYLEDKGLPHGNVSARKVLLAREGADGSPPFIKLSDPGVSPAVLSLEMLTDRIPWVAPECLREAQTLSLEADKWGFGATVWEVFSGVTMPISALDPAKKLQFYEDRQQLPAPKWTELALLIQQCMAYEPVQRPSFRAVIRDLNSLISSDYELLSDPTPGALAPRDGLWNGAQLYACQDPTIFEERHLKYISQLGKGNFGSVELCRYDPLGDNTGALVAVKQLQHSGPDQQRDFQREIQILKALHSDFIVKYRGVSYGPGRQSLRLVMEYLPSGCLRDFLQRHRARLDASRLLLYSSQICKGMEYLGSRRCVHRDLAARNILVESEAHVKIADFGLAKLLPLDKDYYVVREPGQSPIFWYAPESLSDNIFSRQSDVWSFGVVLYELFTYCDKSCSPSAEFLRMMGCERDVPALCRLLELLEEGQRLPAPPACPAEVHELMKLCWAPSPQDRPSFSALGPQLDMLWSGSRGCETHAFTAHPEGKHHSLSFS
# [2] = target: T2, HER2 (Homo sapiens, UniProt P04626); assay: kinase inhibition assay (ADP-Glo)
# T2 construct: gene ERBB2
# T2 sequence (P04626 23-1255): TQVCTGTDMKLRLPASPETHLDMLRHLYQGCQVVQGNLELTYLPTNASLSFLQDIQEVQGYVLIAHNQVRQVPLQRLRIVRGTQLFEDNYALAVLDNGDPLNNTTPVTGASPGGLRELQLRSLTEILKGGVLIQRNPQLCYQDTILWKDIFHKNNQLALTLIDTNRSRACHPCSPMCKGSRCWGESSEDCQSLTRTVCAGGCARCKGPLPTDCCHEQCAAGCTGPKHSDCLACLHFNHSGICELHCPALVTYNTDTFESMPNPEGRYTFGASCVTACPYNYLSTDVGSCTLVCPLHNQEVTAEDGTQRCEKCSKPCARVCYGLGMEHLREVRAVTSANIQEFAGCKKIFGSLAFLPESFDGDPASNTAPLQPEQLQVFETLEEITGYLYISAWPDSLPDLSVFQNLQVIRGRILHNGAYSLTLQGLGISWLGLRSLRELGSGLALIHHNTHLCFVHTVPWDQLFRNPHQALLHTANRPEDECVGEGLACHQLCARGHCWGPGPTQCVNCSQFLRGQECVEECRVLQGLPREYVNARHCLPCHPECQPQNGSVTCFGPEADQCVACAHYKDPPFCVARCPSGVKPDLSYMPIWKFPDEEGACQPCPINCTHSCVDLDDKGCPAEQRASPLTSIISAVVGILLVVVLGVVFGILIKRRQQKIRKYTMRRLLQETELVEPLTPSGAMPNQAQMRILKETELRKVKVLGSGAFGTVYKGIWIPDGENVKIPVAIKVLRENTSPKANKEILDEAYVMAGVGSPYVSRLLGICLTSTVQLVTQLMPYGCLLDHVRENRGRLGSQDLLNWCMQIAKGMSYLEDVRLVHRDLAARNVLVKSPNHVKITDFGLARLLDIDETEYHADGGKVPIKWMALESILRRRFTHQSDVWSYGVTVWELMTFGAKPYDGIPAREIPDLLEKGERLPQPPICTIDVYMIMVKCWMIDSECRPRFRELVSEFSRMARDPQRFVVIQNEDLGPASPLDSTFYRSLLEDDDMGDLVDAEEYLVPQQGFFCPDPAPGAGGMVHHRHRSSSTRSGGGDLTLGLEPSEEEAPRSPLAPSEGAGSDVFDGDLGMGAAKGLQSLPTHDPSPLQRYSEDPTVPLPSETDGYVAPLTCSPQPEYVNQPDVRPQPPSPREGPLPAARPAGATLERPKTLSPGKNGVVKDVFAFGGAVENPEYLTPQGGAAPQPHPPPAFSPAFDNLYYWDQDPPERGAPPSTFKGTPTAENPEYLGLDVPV
# [3] = target: T3, EGFR-TK (epidermal growth factor receptor tyrosine kinase) (Homo sapiens, UniProt P00533); assay: ADP-Glo kinase assay
# T3 construct: tyrosine kinase (TK) domain
# T3 sequence (P00533 712-979 limits assumed): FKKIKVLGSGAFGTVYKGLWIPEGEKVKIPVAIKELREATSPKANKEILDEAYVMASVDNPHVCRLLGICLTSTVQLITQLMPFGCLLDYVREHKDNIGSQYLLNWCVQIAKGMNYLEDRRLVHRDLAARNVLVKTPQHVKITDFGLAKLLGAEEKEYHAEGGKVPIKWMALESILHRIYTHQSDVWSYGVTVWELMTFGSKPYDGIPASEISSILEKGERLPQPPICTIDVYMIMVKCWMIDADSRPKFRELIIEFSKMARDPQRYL
smiles,measurement,setting,value
COc1cc(/C=C/S(=O)(=O)c2ccccc2)cc(OC)c1OC [VF16],IC50,[1],158 ± 4.75 nM
same,IC50,[2],312 ± 0.28 nM
same,IC50,[3],7.85 ± 0.88 nM
